Data: patent US8883740B2, “Peptides, compositions, and uses thereof” (Fundacao de Amparoa Pesquisa do Estado de Sao Paulo-Fapesp, priority 2008, dated 2014)
Values joined by “and” are separate entries in the source; they are usually repeats but may differ in a detail not shown here. Identical values can stand only once.

How the values were obtained:
[1] = system: endothelial cells (HUVEC); test: Cell viability, MTT colorimetric assay under reduced serum; type: cell-based; settings: 5 μg/ml; 48 hours; RPMI 1640 with 1% FBS; vs control without peptide
Procedure: Tests for cell viability (% viability) was realized utilizing reduced serum conditions and MTT (3-[4,5-Dimethylthiazol-2-yl]-2,5-Diphenyltetrazolium bromide) colorometric assay (Mosmann, 1983). The results are illustrated in FIGS. 1 to 3.
FIG. 1 illustrates the effect of peptides (5 μg/ml) on cell viability (% viability) of endothelial cells (HUVEC) when incubated together for 48 hours in RPMI 1640 with 1% FBS. The control has cells incubated in RPMI 1640 with 1% FBS (with no peptide).
FIG. 2 illustrates the effect of different concentrations of CNF011.05B on cell viability (% viability) of endothelial cells when incubated together for 120 hours in RPMI supplemented with 1% FBS.
FIG. 3 illustrates the effect of different concentrations of CNF011.05D on cell viability (% viability) of endothelial cells when incubated together for 48 hours in RPMI supplemented with 1% FBS.

Neutrophils [2] = test: Neutrophil viability by flow cytometry (annexin V / propidium iodide), reduced serum; type: cell-based, Wistar Rats; settings: reduced serum medium (1%), 24 hours
Procedure: (§1) Neutrophils or primary cultured endothelial cells from Wistar Rats were cultured in reduced serum medium (1%) in presence of CNF011.05D (3.0 μm/mL) and/or […] L-NAME, an inhibitor of NO synthase (and accordingly, an inhibitor of NO and resulting metabolite NO2 production). After 24 hours, cell viability was measured using flow cytometry analysis with FITC annexin V (1:500) and propidium iodide (10 μl of 50 mg/ml). The viability of both neutrophils (FIG. 4) and primary endothelial cells (FIG. 5) was increased with the peptide CNF011.05D alone, and this increase was diminished in presence of L-NAME.

[3] = system: primary cultured endothelial cells; test: Primary endothelial cell viability by flow cytometry (annexin V / propidium iodide), reduced serum; type: cell-based, Wistar Rats; settings: reduced serum medium (1%), 24 hours
Procedure: as §1

Neutrophils [4] = test: NO2 production by neutrophils, Griess reaction; type: cell-based, Wistar Rats; settings: 1.5 μg/ml; 18 hours; absorbance at 550 nm
Procedure: Neutrophils were cultured for 18 hours with CNF011.05D (1.5 μg/ml), and production of NO metabolite NO2 secreted into culture was assessed by use of the Griess reaction, and measurement of absorbance at 550 nm.

Human fibroblasts [5] = test: Production of fibronectin by fibroblasts, indirect immunofluorescence; type: cell-based; settings: 0.35 μg; 4 days; vs saline; p<0.001
Procedure: (§2) Human fibroblasts were acquired from ear lobe skin fragments (0.5×0.5 cm) from 5 normal African-Brazilian female donors, with age ranging from 10 to 40 years old, respectively called 2/05, 3/05, 4/05, 6/05 and 8/05. The donors were submitted to excisional biopsies in a surgical environment after free voluntary consent.
(§3) Cells from the 6th subculture were placed in sterile culture plates and incubated with CNF011.05D at concentrations of 0.35 μg and 5 μg in culture medium for 4 days. The control group consisted of fibroblasts cultured under the same conditions, in which saline solution (a solvent of CNF011.05D) was added in the place of CNF011.05D.
(§4) Indirect immunofluorescence was performed using (1) Anti-fibronectin (cellular) mAb OR anti-human tenascin mAb (Sigma-USA); and (2) Alexa Fluor 488 (Molecular Probes-USA).
Samples tested are FBN-CN (cells treated with saline), FBN-0.35 (cells treated with CNF011.05D at 0.35 μg), and FBN-5 μg (cells treated with CNF011.05D at 5 μg).

Human fibroblasts [6] = test: Production of tenascin by fibroblasts, indirect immunofluorescence; type: cell-based; settings: 0.35 μg; 4 days; vs saline; p<0.001
Procedure: as §2, §3, §4
Samples tested are CN (cells treated with saline), TN-0.35 (cells treated with CNF011.05D at 0.35 μg), and TN-5 μg (cells treated with CNF011.05D at 5 μg).

collagen in the dermis = test: Production of collagen in the dermis after subcutaneous doses; type: in vivo
Text: Levels of collagen were examined after different administrations of CNF011.05D: a single subcutaneous dose, two subcutaneous doses, and four subcutaneous doses.

punch wounds [7] = test: Wound healing in rats, 6 mm punch wounds; type: in vivo, Wistar rats
Procedure: Size and microscopic appearance of punch wounds was assessed in rats after a single dose of CNF011.05D. The rats were Wistar rats of 6-to-8 weeks of age, which were anesthesized and operated on the dorsal side of their backs. Following clipping of hair and scrub sterilization, wounds were made in each rat using a 6 mm biopsy punch. Following wounding and drying with sterile gauze, wounds were subjected to (1) bandaging (Standard Care) or (2) application of CNF011.05D (235 nM in saline) followed by bandaging. Wounds evaluated at Days 3, 7, 14, and 21 were assessed by veterinarians and documented as to whether the wound was healing normally for the day post-wounding, and the size of the wound in cm^2.

punch wounds [8] = test: Wound healing in pigs, 8 mm punch wounds, granulation tissue filling; type: in vivo, Domestic Yorkshire Crossbred pigs
Procedure: Levels of granulation tissue formation—a marker of the proliferative phase of Healing (Cascade)—were assessed in punch wounds after daily administrations of CNF011.05D or positive control (Bacaplermin gel 0.01%). The wounded animals were Domestic Yorkshire Crossbred pigs of 20 weeks of age, which were anesthesized and operated on the dorsal side of their backs. Following clipping of hair and scrub sterilization, 8 full thickness wounds were made in each pig using an 8 mm biopsy punch.
Following wounding and drying with sterile gauze, the wounds were subjected to application with different treatments (see Table 5 and 6) followed by bandaging. Long-term postoperative monitoring included daily inspection of the surgical sites for 14 days. The daily inspection included cleansing of the wounds, reapplication of the same treatments—Standard Care or Positive Control or CNF011.05D (1×) or CNF011.05D (100×)—followed by rebandaging. […]

[9] = CNF011.05D 3.0 μm/mL plus 1M L-NAME
[10] = 1x: 1 ml at 1.57 μg/ml in saline, daily, six wounds, Day 5
[11] = 1x: 1 ml at 1.57 μg/ml in saline, daily, six wounds, Day 7
[12] = 100x: 1 ml at 157 μg/ml in saline, daily, six wounds, Day 7

## APLWILSTDYDNYAIGYSC [CNF011.05B]
[1]
  cell viability (% viability): augment

## YAIGYSCKDYK [CNF011.05D]
[1]
  cell viability (% viability): augment
Neutrophils [2]; [9]
  increase of viability of neutrophils in presence of L-NAME: diminished
Neutrophils [2]; CNF011.05D alone 3.0 μm/mL
  viability of neutrophils: increased
[3]; [9]
  increase of viability of primary endothelial cells in presence of L-NAME: diminished
[3]; CNF011.05D alone 3.0 μm/mL
  viability of primary endothelial cells: increased
Neutrophils [4]
  production of NO2: increases
Human fibroblasts [5]
  production of fibronectin by fibroblasts: significant enhancement
Human fibroblasts [6]
  tenascin production by fibroblasts: significant difference
Collagen in the dermis; four subcutaneous doses 0.30 μg (total 1.20), 4 weeks after dose
  Treated Skin Collagen (%): 37.60% and 34.94%
Collagen in the dermis; single subcutaneous dose 0.30 μg, 1 week after dose
  Treated Skin Collagen (%): 41.20% and 57.15%
Collagen in the dermis; single subcutaneous dose 0.30 μg, 2 weeks after dose
  Treated Skin Collagen (%): 43.78% and 39.20%
Collagen in the dermis; single subcutaneous dose 0.30 μg, 12 weeks after dose
  Treated Skin Collagen (%): 29.57% and 27.22%
Collagen in the dermis; two subcutaneous doses 0.30 μg one week apart (total 0.60), 2 weeks after dose
  Treated Skin Collagen (%): 44.19% and 37.91%
Collagen in the dermis; two subcutaneous doses 0.30 μg one week apart (total 0.60), 12 weeks after dose
  Treated Skin Collagen (%): 39.23% and 47.33%
Punch wounds [7]; 235 nM in saline, single dose, then bandaging, Day 3, 8 rats per timepoint
  Day 3 Size of punch wounds: 0.200 cm^2
Punch wounds [7]; 235 nM in saline, single dose, then bandaging, Day 7, 8 rats per timepoint
  Day 7 Size of punch wounds: 0.084 cm^2
Punch wounds [7]; 235 nM in saline, single dose, then bandaging, Day 14, 8 rats per timepoint
  Day 14 Size of punch wounds: 0.053 cm^2
Punch wounds [7]; 235 nM in saline, single dose, then bandaging, Day 21, 8 rats per timepoint
  Day 21 Size of punch wounds: Scar **
Punch wounds [7]; 21 days, in comparison to Standard Care (negative control)
  scar size and color: scars of reduced size and color
Punch wounds [8]; 1x: 1 ml at 1.57 μg/ml in saline, daily, six wounds, Day 1
  Granulation Tissue Filling No (wounds): 6
Punch wounds [8]; [10]
  Granulation Tissue Filling No (wounds): 3
  Granulation Tissue Filling Yes (wounds): 3
Punch wounds [8]; [11]
  Granulation Tissue Filling No (wounds): 2
  Granulation Tissue Filling Yes (wounds): 4
Punch wounds [8]; 1x: 1 ml at 1.57 μg/ml in saline, daily, six wounds, Day 10
  Granulation Tissue Filling Yes (wounds): 6
Punch wounds [8]; 1x: 1 ml at 1.57 μg/ml in saline, daily, six wounds, Day 14
  Granulation Tissue Filling Yes (wounds): 6
Punch wounds [8]; 1x: 1 ml ointment at 1.57 μg/ml in Hydroxyethyl cellulose/Glycerin (20%/80%), two wounds, Day 1
  Granulation Tissue Filling No (wounds): 2
Punch wounds [8]; 1x: 1 ml ointment at 1.57 μg/ml in Hydroxyethyl cellulose/Glycerin (20%/80%), two wounds, Day 5
  Granulation Tissue Filling Yes (wounds): 2
Punch wounds [8]; 1x: 1 ml ointment at 1.57 μg/ml in Hydroxyethyl cellulose/Glycerin (20%/80%), two wounds, Day 7
  Granulation Tissue Filling Yes (wounds): 2
Punch wounds [8]; 1x: 1 ml ointment at 1.57 μg/ml in Hydroxyethyl cellulose/Glycerin (20%/80%), two wounds, Day 10
  Granulation Tissue Filling Yes (wounds): 2
Punch wounds [8]; 1x: 1 ml ointment at 1.57 μg/ml in Hydroxyethyl cellulose/Glycerin (20%/80%), two wounds, Day 14
  Granulation Tissue Filling Yes (wounds): 2
Punch wounds [8]; 100x: 1 ml at 157 μg/ml in saline, daily, six wounds, Day 1
  Granulation Tissue Filling No (wounds): 6
Punch wounds [8]; 100x: 1 ml at 157 μg/ml in saline, daily, six wounds, Day 5
  Granulation Tissue Filling No (wounds): 6
Punch wounds [8]; [12]
  Granulation Tissue Filling No (wounds): 5
  Granulation Tissue Filling Yes (wounds): 1
Punch wounds [8]; 100x: 1 ml at 157 μg/ml in saline, daily, six wounds, Day 10
  Granulation Tissue Filling Yes (wounds): 6
Punch wounds [8]; 100x: 1 ml at 157 μg/ml in saline, daily, six wounds, Day 14
  Granulation Tissue Filling Yes (wounds): 6
Punch wounds [8]; 100x: 1 ml ointment at 157 μg/ml in Hydroxyethyl cellulose/Glycerin (20%/80%), two wounds, Day 1
  Granulation Tissue Filling No (wounds): 2
Punch wounds [8]; 100x: 1 ml ointment at 157 μg/ml in Hydroxyethyl cellulose/Glycerin (20%/80%), two wounds, Day 5
  Granulation Tissue Filling Yes (wounds): 2
Punch wounds [8]; 100x: 1 ml ointment at 157 μg/ml in Hydroxyethyl cellulose/Glycerin (20%/80%), two wounds, Day 7
  Granulation Tissue Filling Yes (wounds): 2
Punch wounds [8]; 100x: 1 ml ointment at 157 μg/ml in Hydroxyethyl cellulose/Glycerin (20%/80%), two wounds, Day 10
  Granulation Tissue Filling Yes (wounds): 2
Punch wounds [8]; 100x: 1 ml ointment at 157 μg/ml in Hydroxyethyl cellulose/Glycerin (20%/80%), two wounds, Day 14
  Granulation Tissue Filling Yes (wounds): 2
